Experimental data from US20250108036A1, “COMPOSITIONS FOR REMOVING SENESCENT CELLS AND USES THEREOF” (LIFECEUTIX CO., LTD., priority 2021, published 2025).

Experiments:
IL6, MCP1 = test: serum IL6 and MCP1 ELISA in naturally aged mice (Example 7-5); type: in vivo, C57BL6J mice; conditions: LX-112 70 mg/kg oral daily 21 days
Description: (§1) After 22-month-old female C57BL6J mice (purchased from KRIBB Laboratory Animal Resource Center) were adapted to the experimental environment for one week, the aged mice were randomized into an experimental group and a control group. 8-week-old mice that were not aged were used as controls. LX-112 was mixed with 0.5% CMC-Na solution (purchased from Sigma) and administered orally at a concentration of 70 mg/kg daily for 21 days. The control group was administered only the solution in the same volume. After drug administration was completed, the method described in each Example below was performed.
Serum collected from mice was stored at −80° C. until use. The amounts of IL6 and MCP1, which are aging-related inflammation secretory factors (SASPs), were measured in serum using an enzyme-linked immunosorbent assay (ELISA Kit, purchased from R&D Systems).

IL6 = test: serum IL6 ELISA in doxorubicin-aged mice (Example 8-5); type: in vivo, C57BL6J mice; conditions: doxorubicin-aged mice, LX-112 70 mg/kg oral daily 21 days
Description: (§2) After adapting 8-week-old male C57BL6J mice (purchased from KRIBB Laboratory Animal Resource Center) to the experimental environment for 1 week, doxorubicin, an anticancer drug, was administered intraperitoneally at a concentration of 10 mg/kg, and mice that were induced to age for more than 10 days were assigned to an experimental group and a control group. LX-112 was mixed with 0.5% CMC-Na solution (purchased from Sigma) and administered orally at a concentration of 70 mg/kg daily for 21 days. The control group was administered only the solution in the same volume. After drug administration was completed, the method described in each Example below was performed.
The amount of IL6, an aging-related inflammation secretory factor (SASP), was measured in serum collected from mice in the same manner as in Example 7-5 using an enzyme-linked immunosorbent assay (ELISA Kit, purchased from R&D Systems).

[1] = skin aging (dermal thickness, collagen mRNA) in naturally aged mice (Example 7-9); type: in vivo, C57BL6J mice
Description: as §1
Frozen sections of skin tissue were stained with H/E (Hematoxylin/Eosin), and the thickness of the dermis was observed under an optical microscope. Additionally, the mRNA amount of collagen (COL1A1) was measured by qRT-PCR as described in Example 7-2.

lipofuscin [2] = test: lipofuscin staining of muscle of doxorubicin-aged mice (Example 8-4); type: in vivo, C57BL6J mice; conditions: stained area; doxorubicin-aged mice, LX-112 70 mg/kg oral daily 21 days
Description: as §2
Mice were sacrificed in the same manner as in Example 7-4, and tissue sections were prepared from muscle tissue. Lipofuscin, an aging-related degenerative marker was stained.

lipofuscin [3] = test: lipofuscin (Sudan Black B) staining of muscle of naturally aged mice (Example 7-4); type: in vivo, C57BL6J mice; conditions: stained area, LX-112 70 mg/kg oral daily 21 days
Description: as §1
Mice was sacrificed and tissue sections from muscle tissue were prepared in the same manner as in Example 7-3. Lipofuscin is a degenerative abnormal complex of proteins and lipids produced in cell lysosomes with aging and is a marker of aging-related degeneration. The amount of lipofuscin was measured as follows: the sections were stained using Sudan Black B (purchased from Sigma) and photographed, and then the area of the stained area was calculated using the Image J program and quantified by normalizing it based on the total area.

[4] = test system: foreskin cells, replicative senescence (REP); test: CellTiter-Glo cell viability of replicative senescent foreskin cells (Example 3-2); type: cell-based, human; conditions: 3 days
[5] = test system: foreskin cells in which aging was induced by doxorubicin; test: cell viability of senescent foreskin cells with caspase inhibitor QVD-Oph (Example 10, Table 61); type: cell-based, human; conditions: LX-112 10 μM; for Survial (%): doxorubicin-senescent foreskin cells, 3 days
[6] = open field test in obese mice given senescent cells killed by test compounds (Example 16, Table 72); type: in vivo, C57BL6J mice; conditions: obese mice administered senescent cells whose death was induced by the test compound
Text: To obtain preadipocytes, groin fat tissue was collected from an 8-week-old female C57BL6J mouse (purchased from KRIBB Laboratory Animal Resource Center). The fat tissue was cut into small pieces and treated with collagenase to decompose the fat tissue, then centrifuged to collect the stromal vascular fraction (SVF) containing preadipocytes. It was washed with a washing medium (HBSS, purchased from GenDEPOT; 3.5% Albumin Fraction V, purchased from GenDEPOT; 100 U/ml Penicillin & Streptomycin, purchased from Invitrogen), mixed again, and extracted by filtering through a 100 μm nylon mesh. The isolated preadipocytes were cultured in the designated medium (DMEM, purchased from GenDEPOT; 20% FBS, purchased from GenDEPOT; 100 U/ml Penicillin & Streptomycin, purchased from Invitrogen). In the same manner as Example 1, cells were treated with doxorubicin at a concentration of 250 nM for 24 hours and cultured for an additional 21 days to induce cell senescence. Cells were treated with doxorubicin at a concentration of 250 nM for 24 hours and cultured for an additional 21 days to induce cell senescence. By treating the test compounds in the same manner as in Example 13, it was confirmed using an optical microscope that the death of most senescent cells was induced. The killed preadipocytes were washed using PBS (purchased from Welgene) and then mixed with PBS at a concentration of 5×10^5 cells/200 μl. It was administered subcutaneously to 8-week-old female C57BL6J mice (purchased from KRIBB Laboratory Animal Resource Center). At 7 and 10 days after administration of the killed senescent cells, 2 million senescent preadipocytes were mixed in 200 μl of PBS and administered into the abdominal cavity of mice. After administration of killed senescent cells, obesity was induced in mice with a high-fat diet (DIO) for 8 weeks in the same manner as in Example 9-1. Afterwards, the mouse was sacrificed in the same manner as in Example 7-2, total RNA was extracted from the groin fat tissue, and qRT-PCR was performed and analyzed using the synthesized cDNA. […] The mRNA amount of p16, MMP3, and IL6 without administration of senescent cells whose death was induced by the test compounds was calculated as 100%, and the amount of p16, MMP3, and IL6 after administration of the senescent cells whose death was induced by the test compounds was compared with them. Furthermore, an open field test was performed to analyze aging-related frailty in mice using the same method as Example 7-7. […] The amount of activity evaluation without administration of senescent cells whose death was induced by the test compounds was calculated as 100% and compared it with the amount of activity evaluation after administration of senescent cells whose death was induced by the test compounds.

Compound	IL6 (%) (IL6, MCP1)	MCP1 (%) (IL6, MCP1)	IL6 (%) (IL6)	Collagen mRNA (Fold) ([1]; COL1A1, skin, LX-112, aged untreated = 1)	Dermal Thickness (μm) ([1]; LX-112 70 mg/kg oral daily 21 days)	Lipofuscin (%) Muscle (lipofuscin [2])	Lipofuscin (%) Muscle (lipofuscin [3])	Survival (%) ([4]; LX-112 1.1 μM)	Survival (%) ([4]; LX-112 10 μM)	Survial (%) ([5]; QVD-Oph 20 μM applied 4 hours before)	Survial (%) ([5]; without QVD-Oph)	inhibition of the death of senescent cells by the caspase inhibitor ([5]; QVD-Oph 20 μM, ABT-263 1 μM)	Open Field Test Time in Center (%) [6]
O=c1c2ccccc2[se]n1CCn1[se]c2ccccc2c1=O [LX-112, 1,2-[bis(1,2-benzisoselenazolone-3(2H)-ketone)]ethane]	63 (±12.8) %	58 (±9.8) %	69.8 (±12.2) %	2.3 (±0.4) Fold	265 (±17.2) μm	77.1 (±8) %	71 (±6) %	59 (±6) %	1 (±0.9) %	53.9 (±2.2) %	39.5 (±3.7) %	did not effectively inhibit	–
COC(=O)c1ccc([C@H]2c3[nH]c4ccccc4c3C[C@H](C(=O)OC)N2C(=O)CCl)cc1 [LX-405]	–	–	–	–	–	–	–	–	–	–	–	–	174.2 (±12.5) %
